Experiments:
ABUTH (Velvetleaf) = assay: Postemergence herbicidal evaluation; format: in vivo, Abutilon theophrasti; conditions: postemergence
Outline: (§1)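 ~2-wk seedlings; postemergence spray, 40 psi; vehicle 1:1 acetone:water + 0.5% Tween 20; rate ≈0.0156–0.500 kg/ha; greenhouse hold; scored 4–5 wk after treatment, 0–9 scale vs control; repeat tests averaged.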

AMBEL (Ragweed, Common) [1] = assay: Postemergence herbicidal evaluation; format: in vivo, Ambrosia artemisifolia; conditions: postemergence
Outline: as §1

[2] = system: CHEAL (Lambsquarters, Common); assay: Postemergence herbicidal evaluation; format: in vivo, Chenopodium album; conditions: postemergence
Outline: as §1

ECHCG (Barnyardgrass) = assay: Postemergence herbicidal evaluation; format: in vivo, Echinochloa crus-galli; conditions: postemergence
Outline: as §1

[3] = system: GLXMAW (Soybean, Williams); assay: Postemergence herbicidal evaluation; format: in vivo, Glycine max, (L.) Merr. cv Williams; conditions: postemergence
Outline: as §1

ORYSAT (Rice, Tebonnet) = assay: Postemergence herbicidal evaluation; format: in vivo, Oryza sativa, (L.) Tebonnet; conditions: postemergence
Outline: as §1

ZEAMX (Corn, Field) = assay: Postemergence herbicidal evaluation; format: in vivo, Zea mays; conditions: postemergence
Outline: as §1

AMBEL (Ragweed, Common) [4] = assay: Preemergence herbicidal evaluation; format: in vivo, Ambrosia artemisifolia; conditions: preemergence, rated 4-5 weeks after treatment, 0-9 scale
Outline: (§2)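 Sown cups got a single aqueous acetone spray of test compound (roughly 0.0156–0.500 kg/ha) before seedlings emerged. Evaluation, 4–5 weeks on, used a 0–9 visual scale covering plant stand, vigor, size, malformation, chlorosis and general appearance compared with controls.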

CASOB (Sicklepod) = assay: Preemergence herbicidal evaluation; format: in vivo, Cassia obtusifolia; conditions: preemergence, rated 4-5 weeks after treatment, 0-9 scale
Outline: as §2

[5] = system: CHEAL (Lambsquarters, Common); assay: Preemergence herbicidal evaluation; format: in vivo, Chenopodium album; conditions: preemergence, rated 4-5 weeks after treatment, 0-9 scale
Outline: as §2

GALAP (Galium) = assay: Preemergence herbicidal evaluation; format: in vivo, Galium aparine; conditions: preemergence, rated 4-5 weeks after treatment, 0-9 scale
Outline: as §2

CYPSE (Flatsedge) [6] = assay: Preemergence weed control under flooded paddy conditions; format: in vivo, Cyperus serotinus; conditions: rated 3-4 weeks after treatment
Outline: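 Seeds or propagules sown in top 0.5 cm of silt loam soil, flooded 1.5 to 3 cm above surface throughout. Compound in 50/50 v/v aqueous/acetone pipetted into flood water at about 0.0313 to 0.500 kg/ha. Visual 0-9 rating versus control after three to four weeks in greenhouse.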

CYPIR (Rice Flatsedge) = assay: Postemergence weed control under flooded paddy conditions; format: in vivo, Cyperus iria; conditions: postemergence weeds, rated 3 to 4 weeks after treatment
Outline: (§3)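 Herbicidal effect is judged by eye on a 0–9 scale versus control, 3–4 weeks after dosing. Dosing is into flood water kept 1.5–3 cm over the soil, at about 0.0313–0.500 kg/ha in aqueous/acetone 50/50 v/v, on 3–5 cm weeds and 1.5–2.5-leaf rice seedlings.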

CYPSE (Flatsedge) [7] = assay: as above; format: in vivo, Cyperus serotinus; conditions: postemergence weeds, rated 3 to 4 weeks after treatment
Outline: as §3

C=CCN1C(=O)C(CC(=O)NOC)SC1=Nc1cc(-n2c(=O)cc(C(F)(F)F)n(C)c2=O)c(F)cc1Cl (stereo not shown) [Compound 85]
3.0: AMBEL rating (AMBEL (Ragweed, Common) [4]; 0.0625 kg/ha) | CHEAL rating ([5]; 0.0156 kg/ha) | Herbicidal rating CYPIR (CYPIR (Rice Flatsedge); Rate 0.0313 kg/ha)
7.5: GLXMAW herbicidal rating ([3]; rate 0.1250 kg/ha) | ZEAMX herbicidal rating (ZEAMX (Corn, Field); rate 0.0625 kg/ha)
4.0: CHEAL herbicidal rating ([2]; rate 0.0313 kg/ha) | CHEAL herbicidal rating ([2]; rate 0.0625 kg/ha) | ZEAMX herbicidal rating (ZEAMX (Corn, Field); rate 0.0156 kg/ha) | GALAP rating (GALAP (Galium); 0.1250 kg/ha)
4.5: GLXMAW herbicidal rating ([3]; rate 0.0156 kg/ha)
0.0: ECHCG herbicidal rating (ECHCG (Barnyardgrass); rate 0.0156 kg/ha) | ECHCG herbicidal rating (ECHCG (Barnyardgrass); rate 0.0313 kg/ha) | ECHCG herbicidal rating (ECHCG (Barnyardgrass); rate 0.0625 kg/ha) | AMBEL rating (AMBEL (Ragweed, Common) [4]; 0.0156 kg/ha) | AMBEL rating (AMBEL (Ragweed, Common) [4]; 0.0313 kg/ha) | CASOB rating (CASOB (Sicklepod); 0.0156 kg/ha) | CASOB rating (CASOB (Sicklepod); 0.0313 kg/ha) | CASOB rating (CASOB (Sicklepod); 0.0625 kg/ha) | CASOB rating (CASOB (Sicklepod); 0.1250 kg/ha) | CASOB rating (CASOB (Sicklepod); 0.2500 kg/ha) | GALAP rating (GALAP (Galium); 0.0156 kg/ha) | GALAP rating (GALAP (Galium); 0.0313 kg/ha) | GALAP rating (GALAP (Galium); 0.0625 kg/ha) | CYPSE herbicidal effect rating (CYPSE (Flatsedge) [6]; 0.0313 kg/ha) | Herbicidal rating CYPSE (CYPSE (Flatsedge) [7]; Rate 0.0313 kg/ha)
6.5: ZEAMX herbicidal rating (ZEAMX (Corn, Field); rate 0.0313 kg/ha)
6.0: GLXMAW herbicidal rating ([3]; rate 0.0313 kg/ha) | GLXMAW herbicidal rating ([3]; rate 0.0625 kg/ha) | GALAP rating (GALAP (Galium); 0.2500 kg/ha)
8.5: ZEAMX herbicidal rating (ZEAMX (Corn, Field); rate 0.1250 kg/ha)
9.0: ABUTH herbicidal rating (ABUTH (Velvetleaf); rate 0.0156 kg/ha) | ABUTH herbicidal rating (ABUTH (Velvetleaf); rate 0.0313 kg/ha) | ABUTH herbicidal rating (ABUTH (Velvetleaf); rate 0.0625 kg/ha) | ABUTH herbicidal rating (ABUTH (Velvetleaf); rate 0.1250 kg/ha) | AMBEL herbicidal rating (AMBEL (Ragweed, Common) [1]; rate 0.0156 kg/ha) | AMBEL herbicidal rating (AMBEL (Ragweed, Common) [1]; rate 0.0313 kg/ha) | AMBEL herbicidal rating (AMBEL (Ragweed, Common) [1]; rate 0.0625 kg/ha) | AMBEL herbicidal rating (AMBEL (Ragweed, Common) [1]; rate 0.1250 kg/ha) | CHEAL herbicidal rating ([2]; rate 0.1250 kg/ha) | ECHCG herbicidal rating (ECHCG (Barnyardgrass); rate 0.1250 kg/ha) | AMBEL rating (AMBEL (Ragweed, Common) [4]; 0.2500 kg/ha) | AMBEL rating (AMBEL (Ragweed, Common) [4]; 0.5000 kg/ha) | CASOB rating (CASOB (Sicklepod); 0.5000 kg/ha) | CHEAL rating ([5]; 0.0313 kg/ha) | CHEAL rating ([5]; 0.0625 kg/ha) | CHEAL rating ([5]; 0.1250 kg/ha) | CHEAL rating ([5]; 0.2500 kg/ha) | CHEAL rating ([5]; 0.5000 kg/ha) | GALAP rating (GALAP (Galium); 0.5000 kg/ha) | CYPSE herbicidal effect rating (CYPSE (Flatsedge) [6]; 0.2500 kg/ha) | Herbicidal rating CYPIR (CYPIR (Rice Flatsedge); Rate 0.1250 kg/ha) | Herbicidal rating CYPIR (CYPIR (Rice Flatsedge); Rate 0.2500 kg/ha) | Herbicidal rating CYPSE (CYPSE (Flatsedge) [7]; Rate 0.2500 kg/ha)
7.0: AMBEL rating (AMBEL (Ragweed, Common) [4]; 0.1250 kg/ha) | Herbicidal rating CYPIR (CYPIR (Rice Flatsedge); Rate 0.0625 kg/ha)
1.5: ORYSAT herbicidal rating (ORYSAT (Rice, Tebonnet); rate 0.0625 kg/ha)
1.0: ORYSAT herbicidal rating (ORYSAT (Rice, Tebonnet); rate 0.0156 kg/ha) | ORYSAT herbicidal rating (ORYSAT (Rice, Tebonnet); rate 0.0313 kg/ha)
2.5: ORYSAT herbicidal rating (ORYSAT (Rice, Tebonnet); rate 0.1250 kg/ha)
2.0: CHEAL herbicidal rating ([2]; rate 0.0156 kg/ha) | CYPSE herbicidal effect rating (CYPSE (Flatsedge) [6]; 0.0625 kg/ha) | CYPSE herbicidal effect rating (CYPSE (Flatsedge) [6]; 0.1250 kg/ha) | Herbicidal rating CYPSE (CYPSE (Flatsedge) [7]; Rate 0.0625 kg/ha) | Herbicidal rating CYPSE (CYPSE (Flatsedge) [7]; Rate 0.1250 kg/ha)
